Where two headings read alike, the source gives them in different places.
Key:
[1] = Cell cytotoxic test (MTT) on Huh-luc/neo-ET cells; format: cell-based; conditions: human, concentration for 50% cell kill, two-day culture
Protocol: (§1) Cell Cytotoxic Test on Huh-luc/noe-ET Cells
(§2) Huh-luc/neo-ET cells with a concentration of 2.5×10^4 cells/100 μl/well were seeded into a 96 well culture plate (Corning Incorporation COSTAR, 3599) and placed into a cell incubator for culturing.
(§3) The next day, the oleanolic acid derivatives as listed in the following Tables 1 and 2 were diluted with a DMEM culture medium to the concentrations of 28.73 μg/ml, 9.57 μg/ml, 3.19 μg/ml, 1.06 μg/ml, 0.35 μg/ml, 0.11 μg/ml, 0.039 μg/ml and 0.013 μg/ml, respectively, or diluted to the concentrations of 114.92 μg/ml, 38.33 μg/ml, 12.77 μg/ml, 4.25 μg/ml, 1.42 μg/ml, 0.46 μg/ml, 0.16 μg/ml and 0.057 μg/ml, respectively. The initial medium in the 96 well culture plate was sucked out by a vacuum pump (DOAT-704AA) without removing the cells. Then, the culture medium containing the oleanolic acid derivatives were added into the 96 well culture plate containing 100 μl/well of the cells as the experiment groups, while the untreated culture mediums were added to the cells as a control.
(§4) After a two-day culture, the medium was removed and each well containing cells was washed by 100 μl of 1×PBS (1 mM KH2PO4, 10 mM Na2HPO4, 137 mM NaCl, 2.7 mM KCl) twice. Precipitates were recorded and PBS was removed. 50 μl of the medium containing 0.5 mg/ml of MTT (Sigma, M2128) was added into each well of the 96 well culture plate. The 96 well culture plate was placed in a CO2 culture incubator for 1 hour. Subsequently, 150 μl of DMSO (Riedel-de Haül, 60153) was added to each well of the 96 well culture plate and vortexed (KS shaker Type 670) to thoroughly mix the resulting purple precipitates. The 96 well culture plate was then placed in a continuous wave length microwell plate analysis system (Molecular Devices, SPECTRAMAX 190) to measure the absorbance of cells at a wavelength of 560 nm.
(§5) The average absorbance of the control was set as 100% of the cell survival rates (%) to calculate the cell survival rates (%) of the experiment groups with different concentrations of the oleanolic acid derivatives.
(§6) The cell survival rate was calculated by the following formula: Absorbance of the experiment group/Absorbance of the control×100%
(§7) The data of the cell survival rates for all experiment groups were plotted on an x-y graph to see the distribution. A trend line was obtained. […]

[2] = test system: Huh-luc/neo-ET cells; assay: Cell cytotoxic test (MTT) on Huh-luc/neo-ET cells; format: cell-based; conditions: concentration for 15% cell kill, two-day culture
Protocol: as §1, §2, §3, §4, §5, §6, §7

[3] = test system: HCV replicon system (Huh-luc/neo-ET cell carrying I389luc-ubi-NS3-3'/ET); assay: Inhibition of the HCV replication by determining the firefly luciferase activity (HCV replicon system); format: cell-based, Hepatitis C virus; conditions: for EW (CC50/IC50): ratio of CC50/IC50; for inhibition at 1 µM: compound concentration 1 μM
Description: HCV replicon system was used to test the effects of compounds on the treatment and prevention of hepatitis C. The HCV replicon system has been acknowledged as a screening tool for new drugs (Lohmann, V. et al., 1999, Replication of subgenomic hepatitis C virus RNAs in hepatoma cell line, Science. Vol. 285, 110-113; Bartenschlager, R. 2002, Hepatitis C virus replicons: potential role for drug development, Nature Reviews/Drug Discovery. Vol. 1, 911-916; Vorlijk, J. M. et al., 2003, A replicon-based bioassay for the measurement of interferons in patients with chronic hepatitis C, Journal of Virological Methods. 110:201-209). The HCV replicon system includes a Huh-luc/neo-ET cell carrying I389luc-ubi-NS3-3′/ET gene construct which monitors the replicative capability of the HCV. In the HCV replicon system, a firefly luciferase-ubiquitin-neomycin fusion protein is expressed by the translation of the internal ribosomal entry site (IRES) of the HCV, and the hepatitis C viral nonstructural proteins (NS3-5B), which includes protease, helicase and polymerase, are expressed by the translation of the IRES of the encephalomyocarditis virus (EMCV).
The IRES of the hepatitis C virus or the hepatitis C viral nonstructural proteins consist of a replication complex. When the replication complex is affected by the candidate compound, the activity of the HCV replicon system is inhibited and the activity of the luciferase is reduced. Accordingly, the inhibition of the HCV can be estimated by determining the activity of the intensity of the luciferase expressed by the Huh-luc/noe-ET cell.
Inhibition of the HCV Replication by Determining the Firefly Luciferase Activity
as §2
The oleanolic acid derivatives as listed in Table 2 were co-cultured with Huh-luc/neo-ET cells for 2 days. The mediums were washed twice by 100 μl of 1×PBS (1 mM KH2PO4, 10 mM Na2HPO4, 137 mM NaCl, 2.7 mM KCl) and PBS was removed. 35 μl of 1× passive lysis buffer (Promega, E1941) was added to the cells and vortexed for 10 minutes to thoroughly lysis the cells.
30 μl/well of the cell suspension was then added to a 96 well white plate (NUNC, 236108) for the measurement of the luciferase activity. Subsequently, 40 μl/well of luminescence analysis buffer and 20 μl/well of luminescence substrate (1 mM D-Luciferin) were added into the 96 well white plates. The luciferase activity (Rlu/s) was measured by a microplate luminescence meter (Berthold, MPL4) immediately.
The luciferase activity of the control was set as a standard to calculate the inhibition rates (%) of HCV of the experiment groups. The inhibition rates was calculated by the following formula: […]
After the test compounds were serial diluted and the inhibition rates of the HCV replication were determined at different concentrations, the concentration at 50% inhibition of the HCV replication (IC50) was calculated by grafit5 software (Erithacus Software).
For each experiment, 0.5 ng/ml and 0.1 ng/ml of the PEG IFN alpha-2a were used as positive controls for the IC50 test. Meanwhile, 1 μg/ml of cyclosporine A (CsA) was also used as a positive control for the IC50 test.

[4] = Hepatitis C virus, Huh-luc/neo-ET
[5] = Hepatitis C virus, Huh-luc/neo-ET, 48 h, read-out: Inhibition rate (%)
[6] = Hepatitis C virus, Huh-luc/neo-ET, 48 h, compound concentration 10 μM, 2 days co-culture, luciferase activity, read-out: Inhibition rate (%)
[7] = Hepatitis C virus, concentration for 50% inhibition of the HCV replication, Huh-luc/neo-ET replicon cells, read-out: IC50
[8] = Hepatitis C virus, Huh-luc/neo-ET, 48 h, 2 days co-culture, luciferase activity, read-out: Inhibition rate (%)

Row | SMILES | CC50 at 2 days [1] [µM] | CC15 [2] [µM] | IC50 [3, 4] [µM] | inhibition at 10 µM [3, 5] [%] | EW (CC50/IC50) [3] | inhibition at 10 µM [3, 6] [%] | IC50 [3, 7] [µM] | inhibition at 1 µM [3, 8] [%] | inhibition at 5 µM [3, 5] [%] | inhibition at 4 µM ([3]; Hepatitis C virus, Huh-luc/neo-ET, 48 h, compound concentration 4 μM, 2 days co-culture, luciferase activity, read-out: Inhibition rate (%)) [%]
1 | C/C=C(/C)C(=O)OC1CC(C)(C)CC2C3=CCC4C5(C)CCC(OC6OC(C)C(OC7OC(C(=O)O)C(O)C(OC8OC(CO)C(O)C(O)C8OC8OC(CO)C(O)C(O)C8O)C7O)C(O)C6O)C(C)(C)C5CCC4(C)C3(C)C(OC(=O)/C=C/C=C/C=C/CCC)C(OC(C)=O)C12CO (stereo not drawn) [A15] | > 100 | >100 | 3.94 ± 0.13 | 92 ± 1.6 | 25.38 |  |  |  |  | 
2 | C=CC(C)(O)CC/C=C(\C)C(=O)OCC1OC(OC(=O)C23CCC4(C)C(=CCC5C6(C)CCC(OC7OC(COC8OC(CO)C(O)C(O)C8O)C(OC8OCC(O)C(O)C8OC8OCC(O)C(O)C8O)C(O)C7NC(C)=O)C(C)(C)C6CCC54C)C2CC(C)(C)C(O)C3O)C(OC2OCC(OC3OCC(O)(CO)C3O)C(O)C2O)C(O)C1OC1OC(CO)C(O)C(O)C1O (stereo not drawn) [A16] | 45.3 | 12.09 |  |  | 107.9 | 95.3 ± 0.3 | 0.42 ± 0.21 |  |  | 
3 | C=CC(C)(O)CC/C=C(\C)C(=O)OCC1OC(OC(=O)C23CCC4(C)C(=CCC5C6(C)CCC(OC7OC(COC8OC(CO)C(O)C(O)C8O)C(OC8OCC(O)C(O)C8OC8OCC(O)C(O)C8O)C(O)C7NC(C)=O)C(C)(C)C6CCC54C)C2CC(C)(C)C(O)C3O)C(OC2OCC(OC3OCC(O)(CO)C3O)C(O)C2O)C(O)C1OC1OC(CO)C(OC(C)=O)C(O)C1O (stereo not drawn) [A17] | 18.1 | 1.49 |  |  | 317.89 |  | 0.057 ± 0.003 | 94.9 ± 1.2 |  | 
4 | C/C=C(\C)C(=O)OC1C(OC(C)=O)C2(C(=O)O)C(CC1(C)C)C1=CCC3C4(C)CCC(OC5OC(CO)C(O)C(OC6OC(CO)C(O)C(OC7OC(C)C(O)C(O)C7O)C6O)C5O)C(C)(C)C4CCC3(C)C1(C)C(OC(C)=O)C2OC(C)=O (stereo not drawn) [A18] | 94.8 | 7.18 |  |  |  | 45 ± 2.9 |  |  |  | 
5 | C=CC(C)(O)CC/C=C(\C)C(=O)OC1C(O)C(CO)OC(OC(=O)C23CCC(C)(C)CC2C2=CCC4C5(C)CCC(OC6OC(COC7OCC(OC(C)=O)C(O)C7OC7OC(COC(C)=O)C(O)C(O)C7OC(C)=O)C(O)C(O)C6OC6OCC(O)C(O)C6O)C(C)(C)C5CCC4(C)C2(C)C(O)C3O)C1OC1OCC(OC2OCC(O)C(OC3OCC(O)C(O)C3O)C2O)C(O)C1O (stereo not drawn) [A19] | 17.9 | 1.17 |  |  | 435.61 |  | 0.041 ± 0.005 | 94.8 ± 1.6 |  | 
6 | C=CC(C)(O)CC/C=C(\C)C(=O)OC1C(O)C(CO)OC(OC(=O)C23CCC(C)(C)CC2C2=CCC4C5(C)CCC(OC6OC(COC7OCC(OC(C)=O)C(O)C7OC7OC(COC(C)=O)C(O)C(O)C7O)C(O)C(O)C6OC6OCC(O)C(O)C6O)C(C)(C)C5CCC4(C)C2(C)C(O)C3O)C1OC1OCC(OC2OCC(O)C(OC3OCC(O)C(O)C3O)C2O)C(O)C1O (stereo not drawn) [A20] | 50.2 | 18.85 |  |  | 576.67 | 96 ± 1.5 | 0.087 ± 0.01 |  |  | 
7 | C=CC(C)(O)CC/C=C(\C)C(=O)OC1C(OCC2OC(OC(=O)C34CCC(C)(C)CC3C3=CCC5C6(C)CCC(OC7OC(COC8OCC(O)C(O)C8OC8OCC(O)C(O)C8O)C(O)C(O)C7O)C(C)(C)C6CCC5(C)C3(C)CC4O)C(OC3OC(C)C(OC4OCC(O)C(OC5OCC(O)C(O)C5O)C4O)C(O)C3O)C(OC(=O)/C(C)=C/CCC(C)(O)C=C)C2O)OC(C)C(O)C1O (stereo not drawn) [A21] | 56.7 | 11.64 |  |  | 90.03 | 97.3 ± 1.1 | 0.63 ± 0.07 |  |  | 
8 | CC1(C)CC2C3=CCC4[C@@]5(C)CC[C@H](OC6OCC(O)C(OC7OC(CO)C(O)C(O)C7O)C6O)C(C)(C)C5CC[C@@]4(C)[C@]3(C)C[C@H](O)[C@@]2(CO)[C@H](OC(=O)c2ccccc2)C1 (stereo partly drawn) [A22] | 40 | 8.62 |  |  |  | -0.8 ± 5.7 |  |  |  | 
9 | C=CC(C)(O)CCCC(C)C(=O)OC1C(C)OC(OC(C)(C=C)CC/C=C(\CO)C(=O)OC2CC3(C(=O)OC4OCC(OC5OC(CO)C(O)C(OC6OC(CO)C(OC7OC(C)C(O)C(O)C7O)C(O)C6O)C5O)C(O)C4O)CCC4(C)C(=CCC5C6(C)CCC(OC7OC(CO)C(OC8OC(CO)C(O)C(OC9OCC(O)C(O)C9O)C8O)C(O)C7O)C(C)(C)C6CCC54C)C3CC2(C)C)C(O)C1O (stereo not drawn) [A23] | 38.1 | 7.96 | 0.23 ± 0.02 |  | 156.73 |  |  |  | 93.5 ± 0.4 | 
10 | CC(=O)NC1C(O[C@H]2CC[C@@]3(C)C(CC[C@]4(C)C3CC=C3C5CC(C)(C)CC[C@]5(C(=O)OC5OC(COC(=O)/C=C/c6ccccc6)C(OC6OC(CO)C(O)C(O)C6OC(C)=O)C(O)C5OC5OCC(OC6OCC(O)(CO)C6O)C(O)C5O)CC[C@]34C)C2(C)C)OC(COC2OCC(O)C(O)C2OC2OCC(O)C(O)C2O)C(OC2OC(CO)C(O)C(O)C2O)C1O (stereo partly drawn) [A24] | 14.1 | 4.53 |  |  |  |  |  |  |  | 54.8 ± 5.4
11 | C=CC(C)(O)CC/C=C(\C)C(=O)O[C@H]1[C@H](O)[C@@H](CO)OC(OC(=O)[C@]23CCC(C)(C)CC2C2=CCC4[C@@]5(C)CC[C@H](OC6O[C@H](COC7OC[C@H](O)[C@H](O)[C@H]7OC7OC[C@@H](O)[C@H](O)[C@H]7O)[C@@H](O)[C@H](O)[C@H]6O)C(C)(C)C5CC[C@@]4(C)[C@]2(C)CC3)[C@@H]1OC1OC(C)C(OC2OC[C@@H](O)[C@H](OC3OC[C@@H](O)[C@H](O)[C@H]3O)[C@H]2O)C(O)C1O (stereo partly drawn) [A25] | 64.1 | 10.29 |  |  | 178.08 | 96.5 ± 0.8 | 0.36 ± 0.016 |  |  | 
12 | C=CC(C)(O)CC/C=C(\C)C(=O)OC1C(O)C(CO)OC(OC(=O)C23CCC(C)(C)CC2C2=CCC4C5(C)CCC(OC6OC(COC7OCC(O)C(O)C7OC7OCC(O)C(O)C7O)C(O)C(O)C6O)C(C)(C)C5CCC4(C)C2(C)CC3O)C1OC1OC(CO)C(OC2OCC(O)C(OC3OCC(O)C(O)C3O)C2O)C(O)C1O (stereo not drawn) [A26] | 38.4 | 7.94 |  |  | 85.24 | 95.6 ± 1.2 | 0.45 ± 0.04 |  |  | 
